Source: US20250288683A1, “TETRAHYDROISOQUINOLINE HETEROBIFUNCTIONAL BCL-XL DEGRADERS” (Treeline Biosciences, Inc., priority 2022, published 2025)

Biological target: T1, Human BCL-XL protein (N-terminal HiBiT tagged BCL-XL in HT1080 cells) (Homo sapiens, UniProt Q07817)
T1 construct: expressed in transfected cells; host or cells: HT-1080 (ATCC CCL-121), stably transduced with lentivirus pLV-UBC-N-HiBiT-BCL-XL-PGK-puro and selected with puromycin
Test: HiBiT based degradation assay
Type: cell-based
Settings: HT1080 cells expressing N-terminal HiBiT tagged BCL-XL, normalized with DMSO control
Text: HiBiT Based Degradation Assay
Human BCL-XL protein coding open reading frame fused with N-terminal HiBiT coding sequence was synthesized from Integrated DNA Technologies (IDT). Next, N-HiBiT-BCL-XL sequence was cloned into pLV-UBC-PGK-Puro, a lentivirus plasmid purchased from Vectorbuilder, to generate pLV-UBC-N-HiBiT-BCL-XL-PGK-puro. Lentiviral particles were generated from Lenti-X™ 293T cells (Clontech) by co-transfection of pLV-UBC-N-HiBiT-BCL-XL-PGK-puro plasmids and lentiviral packaging plasmid mix (Cellecta). HT-1080 [HT1080](ATCC CCL-121) cells were infected with the lentivirus, and HT1080 cells stably integrated with the lentiviral vectors were established by incubation with 1 μg/mL puromycin (Thermofisher).
HT1080 cells expressing N-terminal HiBiT tagged BCL-XL were dispensed into a 384-well plate pre-spotted with compounds at varying concentrations. Three thousand cells were seeded into each well in 40 μL of RPMI 1640 media. […] After incubation, luminescence was read on a PHERAstar FSX Plate Reader (BMG). BCL-XL degradation at each indicated concentration was normalized with the DMSO control. The BCL-XL degradation curves were plotted using a four-parameter logistic model. For compounds displaying hook effects, the curve fitting was performed using the bottom point of the hook curves (i.e., the point of Ymin) as the bottom plateau to calculate EC50.

T1 sequence (Q07817 whole entry): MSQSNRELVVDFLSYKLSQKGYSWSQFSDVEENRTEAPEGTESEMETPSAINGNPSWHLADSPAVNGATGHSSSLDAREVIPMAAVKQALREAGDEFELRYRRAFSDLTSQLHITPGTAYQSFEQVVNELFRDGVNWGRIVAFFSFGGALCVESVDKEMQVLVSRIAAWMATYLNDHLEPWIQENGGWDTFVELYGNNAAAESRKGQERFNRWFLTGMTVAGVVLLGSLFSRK

Ymin (6 h) | Ymin (24 h) | Structure (SMILES)
B (50% ≤ Ymin < 70%) |  | Cc1ncsc1-c1ccc([C@H](C)NC(=O)[C@@H]2C[C@@H](O)CN2C(=O)[C@@H](NC(=O)CCCCCCCCCCCCCn2nc(C)c(-c3ccc(N4CCc5cccc(C(=O)Nc6nc7ccccc7s6)c5C4)nc3C(=O)O)c2C)C(C)(C)C)cc1 [Compound 104a, 6-[8-(1,3-benzothiazol-2-ylcarbamoyl)-3,4-dihydro-1H-isoquinolin-2-yl]-3-[1-[14-[[(1S)-1-[(2S,4R)-4-hydroxy-2-[[(1S)-1-[4-(4-methylthiazol-5-yl)phenyl]ethyl]carbamoyl]pyrrolidine-1-carbonyl]-2,2-dimethyl-propyl]amino]-14-oxo-tetradecyl]-3,5-dimethyl-pyrazol-4-yl]pyridine-2-carboxylic acid]
A (Ymin < 50%) | A (Ymin < 50%) | Cc1ncsc1-c1ccc([C@H](C)NC(=O)[C@@H]2C[C@@H](O)CN2C(=O)[C@@H](NC(=O)CCCCCOc2cccc(-c3ccc(N4CCc5cccc(C(=O)Nc6nc7ccccc7s6)c5C4)nc3C(=O)O)c2C)C(C)(C)C)cc1 [Compound 105a, 6-(8-(Benzo[d]thiazol-2-ylcarbamoyl)-3,4-dihydroisoquinolin-2(1H)-yl)-3-(3-((6-(((S)-1-((2S,4R)-4-hydroxy-2-(((S)-1-(4-(4-methylthiazol-5-yl)phenyl)ethyl)carbamoyl)pyrrolidin-1-yl)-3,3-dimethyl-1-oxobutan-2-yl)amino)-6-oxohexyl)oxy)-2-methylphenyl)picolinic acid]
A (Ymin < 50%) | A (Ymin < 50%) | Cc1ncsc1-c1ccc([C@H](C)NC(=O)[C@@H]2C[C@@H](O)CN2C(=O)[C@@H](NC(=O)CCCCCCOc2cccc(-c3ccc(N4CCc5cccc(C(=O)Nc6nc7ccccc7s6)c5C4)nc3C(=O)O)c2C)C(C)(C)C)cc1 [Compound 106a, 6-(8-(benzo[d]thiazol-2-ylcarbamoyl)-3,4-dihydroisoquinolin-2(1H)-yl)-3-(3-((7-(((S)-1-((2S,4R)-4-hydroxy-2-(((S)-1-(4-(4-methylthiazol-5-yl)phenyl)ethyl)carbamoyl)pyrrolidin-1-yl)-3,3-dimethyl-1-oxobutan-2-yl)amino)-7-oxoheptyl)oxy)-2-methylphenyl)picolinic acid]
A (Ymin < 50%) |  | Cc1ncsc1-c1ccc([C@H](C)NC(=O)[C@@H]2C[C@@H](O)CN2C(=O)[C@@H](NC(=O)CCCCCCCCCNC(=O)c2nc(N3CCc4cccc(C(=O)Nc5nc6ccccc6s5)c4C3)ccc2-c2cnn(Cc3ccccc3)c2C)C(C)(C)C)cc1 [Compound 110a, N-(benzo[d]thiazol-2-yl)-2-(5-(1-benzyl-5-methyl-1H-pyrazol-4-yl)-6-((10-(((S)-1-((2S,4R)-4-hydroxy-2-(((S)-1-(4-(4-methylthiazol-5-yl)phenyl)ethyl)carbamoyl)pyrrolidin-1-yl)-3,3-dimethyl-1-oxobutan-2-yl)amino)-10-oxodecyl)carbamoyl)pyridin-2-yl)-1,2,3,4-tetrahydroisoquinoline-8-carboxamide]
B (50% ≤ Ymin < 70%) |  | Cc1ncsc1-c1ccc([C@H](C)NC(=O)[C@@H]2C[C@@H](O)CN2C(=O)[C@@H](NC(=O)CCCCCCCCCn2nc(C)c(-c3ccc(N4CCc5cccc(C(=O)Nc6nc7ccccc7s6)c5C4)nc3C(=O)O)c2C)C(C)(C)C)cc1 [Compound 111a, 6-[8-(1,3-benzothiazol-2-ylcarbamoyl)-3,4-dihydro-1H-isoquinolin-2-yl]-3-[1-[10-[[(1S)-1-[(2S,4R)-4-hydroxy-2-[[(1S)-1-[4-(4-methylthiazol-5-yl)phenyl]ethyl]carbamoyl]pyrrolidine-1-carbonyl]-2,2-dimethyl-propyl]amino]-10-oxo-decyl]-3,5-dimethyl-pyrazol-4-yl]pyridine-2-carboxylic acid]
B (50% ≤ Ymin < 70%) | B (50% ≤ Ymin < 70%) | Cc1ncsc1-c1ccc([C@H](C)NC(=O)[C@@H]2C[C@@H](O)CN2C(=O)[C@@H](NC(=O)CCc2ccc(Oc3cccc(-c4ccc(N5CCc6cccc(C(=O)Nc7nc8ccccc8s7)c6C5)nc4C(=O)O)c3C)cc2)C(C)(C)C)cc1 [Compound 112a, 6-[8-(1,3-benzothiazol-2-ylcarbamoyl)-3,4-dihydro-1H-isoquinolin-2-yl]-3-[3-[4-[3-[[(1S)-1-[(2S, 4R)-4-hydroxy-2-[[(1S)-1-[4-(4-methylthiazol-5-yl)phenyl]ethyl]carbamoyl]pyrrolidine-1-carbonyl]-2,2-dimethyl-propyl]amino]-3-oxo-propyl]phenoxy]-2-methyl-phenyl]pyridine-2-carboxylic acid]
A (Ymin < 50%) | A (Ymin < 50%) | Cc1ncsc1-c1ccc([C@H](C)NC(=O)[C@@H]2C[C@@H](O)CN2C(=O)[C@@H](NC(=O)Cc2ccc(Oc3cccc(-c4ccc(N5CCc6cccc(C(=O)Nc7nc8ccccc8s7)c6C5)nc4C(=O)O)c3C)cc2)C(C)(C)C)cc1 [Compound 113a, 6-[8-(1,3-benzothiazol-2-ylcarbamoyl)-3,4-dihydro-1H-isoquinolin-2-yl]-3-[3-[4-[2-[[(1S)-1-[(2S,4R)-4-hydroxy-2-[[(1S)-1-[4-(4-methylthiazol-5-yl)phenyl]ethyl]carbamoyl]pyrrolidine-1-carbonyl]-2,2-dimethyl-propyl]amino]-2-oxo-ethyl]phenoxy]-2-methyl-phenyl]pyridine-2-carboxylic acid]
B (50% ≤ Ymin < 70%) | A (Ymin < 50%) | Cc1ncsc1-c1ccc([C@H](C)NC(=O)[C@@H]2C[C@@H](O)CN2C(=O)[C@@H](NC(=O)CCc2ccc(COc3cccc(-c4ccc(N5CCc6cccc(C(=O)Nc7nc8ccccc8s7)c6C5)nc4C(=O)O)c3C)cc2)C(C)(C)C)cc1 [Compound 114a, 6-(8-(benzo[d]thiazol-2-ylcarbamoyl)-3,4-dihydroisoquinolin-2(1H)-yl)-3-(3-((4-(3-(((S)-1-((2S,4R)-4-hydroxy-2-(((S)-1-(4-(4-methylthiazol-5-yl)phenyl)ethyl)carbamoyl)pyrrolidin-1-yl)-3,3-dimethyl-1-oxobutan-2-yl)amino)-3-oxopropyl)benzyl)oxy)-2-methylphenyl)picolinic acid]
A (Ymin < 50%) | A (Ymin < 50%) | Cc1ncsc1-c1ccc([C@H](C)NC(=O)[C@@H]2C[C@@H](O)CN2C(=O)[C@@H](NC(=O)CCCc2ccc(Oc3cccc(-c4ccc(N5CCc6cccc(C(=O)Nc7nc8ccccc8s7)c6C5)nc4C(=O)O)c3C)cc2)C(C)(C)C)cc1 [Compound 115a, 6-(8-(benzo[d]thiazol-2-ylcarbamoyl)-3,4-dihydroisoquinolin-2 (1H)-yl)-3-(3-(4-(4-(((S)-1-((2S,4R)-4-hydroxy-2-(((S)-1-(4-(4-methylthiazol-5-yl)phenyl)ethyl)carbamoyl)pyrrolidin-1-yl)-3,3-dimethyl-1-oxobutan-2-yl)amino)-4-oxobutyl)phenoxy)-2-methylphenyl)picolinic acid]
 | A (Ymin < 50%) | Cc1ncsc1-c1ccc([C@H](C)NC(=O)[C@@H]2C[C@@H](O)CN2C(=O)[C@@H](NC(=O)C[C@H]2CC[C@H](Oc3cccc(-c4ccc(N5CCc6cccc(C(=O)Nc7nc8ccccc8s7)c6C5)nc4C(=O)O)c3C)CC2)C(C)(C)C)cc1 [Compound 116a, 6-(8-(benzo[d]thiazol-2-ylcarbamoyl)-3,4-dihydroisoquinolin-2 (1H)-yl)-3-(3-(((1S,4r)-4-(2-(((S)-1-((2S,4R)-4-hydroxy-2-(((S)-1-(4-(4-methylthiazol-5-yl)phenyl)ethyl)carbamoyl)pyrrolidin-1-yl)-3,3-dimethyl-1-oxobutan-2-yl)amino)-2-oxoethyl)cyclohexyl)oxy)-2-methylphenyl)picolinic acid]

Structure (SMILES) | Ymin (6 h) | Ymin (24 h)
Cc1ncsc1-c1ccc([C@H](C)NC(=O)[C@@H]2C[C@@H](O)CN2C(=O)[C@@H](NC(=O)CCCCCCCOc2cccc(-c3ccc(N4CCc5cccc(C(=O)Nc6nc7ccccc7s6)c5C4)nc3C(=O)O)c2C)C(C)(C)C)cc1 [Compound 107a, 6-[8-(1,3-benzothiazol-2-ylcarbamoyl)-3,4-dihydro-1H-isoquinolin-2-yl]-3-[3-[8-[[(1S)-1-[(2S,4R)-4-hydroxy-2-[[(1S)-1-[4-(4-methylthiazol-5-yl)phenyl]ethyl]carbamoyl]pyrrolidine-1-carbonyl]-2,2-dimethyl-propyl]amino]-8-oxo-octoxy]-2-methyl-phenyl]pyridine-2-carboxylic acid] | B (50% ≤ Ymin < 70%) | 
Cc1ncsc1-c1ccc([C@H](C)NC(=O)[C@@H]2C[C@@H](O)CN2C(=O)[C@@H](NC(=O)CCCCOc2cccc(-c3ccc(N4CCc5cccc(C(=O)Nc6nc7ccccc7s6)c5C4)nc3C(=O)O)c2C)C(C)(C)C)cc1 [Compound 108a, 6-[8-(1,3-benzothiazol-2-ylcarbamoyl)-3,4-dihydro-1H-isoquinolin-2-yl]-3-[3-[5-[[(1S)-1-[(2S,4R)-4-hydroxy-2-[[(1S)-1-[4-(4-methylthiazol-5-yl)phenyl]ethyl]carbamoyl]pyrrolidine-1-carbonyl]-2,2-dimethyl-propyl]amino]-5-oxo-pentoxy]-2-methyl-phenyl]pyridine-2-carboxylic acid] | A (Ymin < 50%) | A (Ymin < 50%)
